# From patent US20110092456A1, “Methods of increasing cAMP levels and uses thereof” (priority 2009, published 2011)
# Entries after “also recorded” stand apart in the source; their conditions may differ. Read-outs that look alike come from different tables or passages of the source.
# Assays:
# [1] = system: Akt; test: Western blot of myocardial Akt; type: in vivo, rat; details: rats, 3-day oral pretreatment, immunoblot, result in words
# Protocol: (§1) Adenosine 5' triphosphate [γ32P] […] The supernatant was collected and the total protein concentration was determined using Lowry Protein Assay. The protein samples were subjected to SDS-PAGE with 4-20% gradient polyacrylamide gel and transferred to pure nitrocellulose membrane (0.45 μm) (Bio-Rad). After blocking with 5% skim milk in Tris-buffered saline, the membrane was incubated overnight at 4° C. with primary antibodies against eNOS, Akt, […]-eNOS, […]-eNOS, […]-Akt, and PTEN, and secondarily with HRP-conjugated anti-mouse or anti-rabbit antibodies. The immunoblots were developed using ECL western Blotting Detection Reagent (Amersham). The protein signals were pictured by an image-scanner and analyzed using Image J software (National Institutes of health, USA). The strength of each signal was normalized to the corresponding β-actin stain signal. Data are expressed as a ratio between the protein and the corresponding β-actin signal density.
# [2] = system: eNOS; details: atorvastatin 3-day pretreatment, 1 mg/kg/d; cited from earlier work
# [3] = system: calcium dependent NOS; details: atorvastatin 3-day pretreatment, 1 mg/kg/d; cited from earlier work
# [4] = system: eNOS; test: Western blot of myocardial eNOS; type: in vivo, rat; details: rats, 3-day oral pretreatment, immunoblot, result in words
# Protocol: as §1
# [5] = system: PTEN; test: Western blot of myocardial PTEN; type: in vivo, rat; details: rats, 3-day oral pretreatment, immunoblot, result in words
# Protocol: as §1
# [6] = system: myocardial adenosine; test: Myocardial adenosine levels (HPLC); type: in vivo, rat; details: rats; 3-day oral pretreatment; result in words
# Protocol: Adenosine 5′ triphosphate [γ32P] […] Adenosine was analyzed by high performance liquid chromatography (HPLC) according to the procedure of Wojcik and Neff {Wojcik, 1982 #325}. […] The protein concentration was determined by Lowry assay. Ten volumes of 0.25 M Ba(OH)2 was added and the samples were centrifuged at 30,000×g for 10 minutes. The supernatants were then transferred to a conical tube and 5 μl of chloroacetaldehyde added to 20 μl of supernatant. The tubes were capped, mixed and submerged in a boiling water bath for 10 min. The samples were analyzed by HPLC using a Waters C18 reversed phase 150 mm×4.6 mm column. […] The excitation monochromator was set to a wavelength of 270 nm and the cutoff wavelength of the emission filter was 389 nm.
# [7] = system: rat model of myocardial ischemia-reperfusion injury; test: Rat myocardial ischemia-reperfusion infarct size protocol; type: in vivo; details: rats; for infarct size (as a percentage of the AR): FIG. 1, 3-day oral pretreatment; for infarct size: 3-day oral pretreatment (atorvastatin 2 mg/kg/d, cilostazol 20 mg/kg/d)
# Protocol: Adenosine 5′ triphosphate [γ32P]
# Hearts were excised and the left ventricle was sliced transversely into 6 sections. Slices were weighed and incubated for 15 minutes at 37° C. in 1% buffered (pH=7.4) 2,3,5-triphenyl-tetrazolium-chloride (TTC), fixed in a 10% formaldehyde and photographed in order to identify the AR (uncolored by the blue dye), the infarct size (unstained by TTC), and the non-ischemic zones (colored by blue dye). The area of AR and infarct size in each slice were determined by planimetry, converted into percentages of the whole for each slice, and multiplied by the weight of the slice and the results summed to obtain the weight of the myocardial AR and infarct size.
# [8] = system: myocardial infarct size; details: 3-day pretreatment, cited from earlier work
# [9] = rat; 16 hours after the third dose, 10 mg/kg/d; cited from earlier work
# [10] = 41 patients; cilostazol 200 mg/d versus aspirin 250 mg/d; cited from earlier work
# [11] = system: middle cerebral artery occlusion; details: rat, cited from earlier work
# [12] = system: Akt; details: rat; oral 30 mg/kg after 2 hours of middle cerebral artery occlusion; cited from earlier work
# [13] = system: permanent middle cerebral artery occlusion; details: mouse; 30 mg/kg intraperitoneally three times (12 h before, 1 h before, just after ischemia); cited from earlier work
# [14] = system: myocardial infarct size; details: rabbit; intravenous 1 mg/kg/min for 5 min before myocardial ischemia; cited from earlier work
# [15] = system: cAMP-dependent protein kinase (PKA); test: Myocardial protein kinase A (PKA) activity, rat; type: in vivo; details: rats; 3-day oral pretreatment; myocardial samples; result in words
# [16] = cited from earlier work
# [17] = 30 min ischemia, 4 h reperfusion, mean±SEM
structure (smiles),measurement,setting,value
CC(C)c1c(C(=O)Nc2ccccc2)c(-c2ccccc2)c(-c2ccc(F)cc2)n1CC[C@@H](O)C[C@@H](O)CC(=O)O [atorvastatin],myocardial levels of Ser-473 P-Akt,[1],"small, statistically significant effect"
same,myocardial total Akt levels,[1],did not affect
same,myocardial levels of P-eNOS,[2],did not affect
same,calcium dependent NOS activity,[3],did not affect
same,myocardial levels of Ser-1177 P-eNOS,[4],but not on Ser-1177 P-eNOS and Ser-633 P-eNOS levels; also recorded: did not increase
same,myocardial total eNOS levels,[4],did not affect
same,myocardial PTEN levels,[5],no effect
same,myocardial adenosine levels,[6],small increase in myocardial adenosine levels
same,infarct size (as a percentage of the AR),[7]; result in words,did not affect infarct size
same,infarct size,[7]; [17],128 ± 8 mg
same,infarct size,[7]; result in words,did not affect infarct size
same,infarct size,[8]; 1 mg/kg/d,did not limit infarct size
same,infarct size,"[8]; oral, 2 mg/kg/d",does not affect infarct size
same,infarct size,"[8]; oral, 10 and 75 mg/kg/d",reduces infarct size
same,blood levels of atorvastatin,[9],comparable to those seen in humans treated with atorvastatin 80 mg/d
O=C1CCc2cc(OCCCCc3nnnn3C3CCCCC3)ccc2N1 [cilostazol],myocardial levels of Ser-473 P-Akt,[1],augmented myocardial levels
same,myocardial total Akt levels,[1],did not affect
same,myocardial levels of Ser-473 P-Akt,[1]; listed as CIL,significantly increased
same,6-month angiographic outcomes,[10],better 6-month angiographic outcomes than aspirin
same,minimal lumen diameter at follow-up,[10],larger
same,percent diameter stenosis,[10],smaller
same,plaque area (intravascular ultrasound),[10],smaller
same,myocardial levels of Ser-633 P-eNOS,[4],augmented myocardial levels
same,myocardial levels of Ser-1177 P-eNOS,[4],augmented myocardial levels
same,myocardial total eNOS levels,[4],did not affect
same,myocardial levels of Ser-633 P-eNOS,[4]; listed as CIL,significantly increased
same,myocardial levels of Ser-1177 P-eNOS,[4]; listed as CIL,significantly increased
same,brain infarct size,"[11]; 2 h occlusion, 24 h reperfusion, oral cilostazol 30 mg/kg, aspirin 300 mg/kg, clopidogrel 30 mg/kg",reduced brain infarct size
same,brain infarct size,[11]; oral 30 mg/kg at 5 min and 4 h after completion of 2 hours of middle cerebral artery occlusion,reduces brain infarct size
same,myocardial PTEN levels,[5],significantly reduce PTEN levels
same,myocardial PTEN levels,[5]; listed as CIL,significantly decreased
same,Akt phosphorylation,[12],augmented Akt phosphorylation
same,brain infarct size measured at 24 h,[13],reduced brain infarct size
same,myocardial adenosine levels,[6],small increase in myocardial adenosine levels
same,infarct size (as a percentage of the AR),[7]; result in words,significantly smaller than in the control group
same,infarct size,[7]; [17],56 ± 4 mg
same,infarct size,[7]; result in words,reduced infarct size; also recorded: significant reduction in infarct size
same,effect of preconditioning by 2 min of ischemia,[14],potentiates the effect of preconditioning
same,myocardial infarct size,[14],does not affect myocardial infarct size
same,cAMP-dependent protein kinase (PKA) activity,[15],significantly increased
same,6-month restenosis rate,"[16]; 50 patients, primary stenting for ST elevation acute myocardial infarction, cilostazol 100 mg BID versus aspirin alone",0%
same,in-stent stenosis,"[16]; 70 patients, Palmaz-Schatz stenting, cilostazol 200 mg/d, aspirin 81 mg/d",8.6%
same,6-month restenosis after successful coronary stenting,"[16]; CREST, cilostazol 100 mg bid, all patients on clopidogrel 30 days and aspirin 6 months",22.0%
same,9-month target lesion revascularization rate per patient,"[16]; RACTS trial, cilostazol 100 mg bid 6 months, ticlopidine 250 mg bid 1 month",22.9%
